Assay results as given in ChEMBL document CHEMBL6182924, “Discovery of a Novel and Potent MET Transcription Inhibitor Targeting Promoter G-Quadruplex for the Treatment of NSCLC” (J Med Chem, 2025).
The source made the active and inactive calls. The calls are words filed in the database; no cut-off is given here.

How the values were obtained:
NCI-H1975 [1] = assay: Induction of apoptosis in human NCI-H1975 cells assessed as necrotic cells at 0.5 uM incubated for 24 hrs by Annexin V-FITC/PI staining based flow cytometry analysis (reference value: 7.33 %); format: functional
[2] = Toxicity in BALB/c mouse xenografted with human A549 cells assessed as body weight loss at 40 mg/kg, po administered once a day and measured after 20 days; format: organism-based; details: in vivo, 480 h, time 20 day
A549 [3] = assay: Antitumor activity against human A549 cells xenografted in BALB/c mouse assessed as downregulation of AKT expression in tumor at 20 mg/kg, po administered once a day and measured for 20 days by Western blot analysis; format: functional, organism-based; details: time 20.0 day
NCI-H1975 [4] = assay: Induction of cell cycle arrest in human NCI-H1975 cells assessed as accumulation of cells at G2 phase at 1 uM measured for 24 hrs by PI/Rnase staining based flow cytometry (reference value: 14.8 %); format: functional
A549 [5] = assay: Induction of cell cycle arrest in human A549 cells assessed as accumulation of cells at G2 phase at 1 uM measured for 24 hrs by PI/Rnase staining based flow cytometry (reference value: 13.4 %); format: functional
A549 [6] = assay: Antitumor activity against human A549 cells xenografted in BALB/c mouse assessed as tumor growth inhibition at 40 mg/kg, po administered once a day and measured up to 24 days; format: functional; details: A549, 576 h, time <= 24 day, read-out: TGI
NCI-H1975 [7] = assay: Induction of apoptosis in human NCI-H1975 cells assessed as late apoptotic cells at 1 uM incubated for 24 hrs by Annexin V-FITC/PI staining based flow cytometry analysis (reference value: 2.27 %); format: functional
[8] = Toxicity in BALB/c mouse xenografted with human A549 cells assessed as spleen damage at 20 mg/kg, po administered once a day and measured after 40 days by H and E staining based analysis; format: organism-based; details: in vivo, 960 h, time 40 day
NCI-H1975 [9] = assay: Induction of apoptosis in human NCI-H1975 cells assessed as early apoptotic cells at 2 uM incubated for 24 hrs by Annexin V-FITC/PI staining based flow cytometry analysis (reference value: 0.35 %); format: functional
NCI-H1975 [10] = assay: Induction of apoptosis in human NCI-H1975 cells assessed as late apoptotic cells at 0.5 uM incubated for 24 hrs by Annexin V-FITC/PI staining based flow cytometry analysis (reference value: 2.27 %); format: functional
A549 [11] = assay: Antitumor activity against human A549 cells xenografted in BALB/c mouse assessed as tumor growth inhibition at 20 mg/kg, ip administered once a day and measured up to 24 days; format: functional; details: A549, 576 h, time <= 24 day, read-out: TGI
A549 [12] = assay: Antiproliferative activity against human A549 cells incubated for 3 days by CCK-8 assay; format: functional, cell-based; details: A549, 72 h
NCI-H1975 [13] = assay: Downregulation of c-Met expression in human NCI-H1975 cells incubated for 72 hrs by Western blot analysis; format: functional, cell-based; details: dose <= 1000.0 nM
[14] = Toxicity in BALB/c mouse xenografted with human A549 cells assessed as liver damage at 40 mg/kg, po administered once a day and measured after 20 days by H and E staining based analysis; format: organism-based; details: in vivo, 480 h, time 20 day
A549 [15] = assay: Downregulation of c-Met expression in human A549 cells incubated for 72 hrs by Western blot analysis; format: functional, cell-based; details: dose <= 1000.0 nM
A549 [16] = assay: Induction of apoptosis in human A549 cells assessed as early apoptotic cells at 0.5 uM incubated for 24 hrs by Annexin V-FITC/PI staining based flow cytometry analysis (reference value: 1.73 %); format: functional
A549 [17] = assay: Inhibition of c-MET expression in human A549 cells up to 2000 nM by Western blot analysis; format: functional, cell-based
NCI-H1975 [18] = assay: Induction of apoptosis in human NCI-H1975 cells assessed as viable cells at 2 uM incubated for 24 hrs by Annexin V-FITC/PI staining based flow cytometry analysis (reference value: 90.1 %); format: functional; details: read-out: Activity
[19] = Acute toxicity in Sprague-Dawley rat assessed as kidney damage at 500 to 2000 mg/kg, po measured every 2 days by H and E staining based analysis; format: organism-based; details: in vivo, 48 h, dose 500-2000 mg/kg, time 2 day
Quadruplex DNA = assay: Binding affinity to c-MET G4-quadruplex DNA (unknown origin) assessed as dissociation constant by MST assay; format: nucleic-acid assay
A549 [20] = assay: Antiproliferative activity against MET knockdown human A549 cells assessed as inhibition of cell growth by CCK-8 assay; format: functional, cell-based
A549 [21] = assay: Induction of cell cycle arrest in human A549 cells assessed as accumulation of cells at G1 phase at 0.5 uM measured for 24 hrs by PI/Rnase staining based flow cytometry (reference value: 75.2 %); format: functional
NCI-H1975 [22] = assay: Inhibition of cell migration in human NCI-H1975 cells incubated for 12 hrs by crystal violet staining based analysis; format: functional; details: dose 0.5-2 µM
A549 [23] = assay: Inhibition of colony formation in human A549 cells incubated for 2 weeks by crystal violet staining based analysis; format: functional, cell-based; details: dose 0.5-2 µM
A549 [24] = assay: Antitumor activity against human A549 cells xenografted in BALB/c mouse assessed as reduction in ki67 expression in tumor at 40 mg/kg, po administered once a day and measured up to 24 days by […] based analysis; format: functional, organism-based; details: time <= 24.0 day
A549 [25] = assay: Induction of apoptosis in human A549 cells assessed as early apoptotic cells at 1 uM incubated for 24 hrs by Annexin V-FITC/PI staining based flow cytometry analysis (reference value: 1.73 %); format: functional
NCI-H1975 [26] = assay: Induction of cell cycle arrest in human NCI-H1975 cells assessed as accumulation of cells at G2 phase at 0.5 uM measured for 24 hrs by PI/Rnase staining based flow cytometry (reference value: 14.8 %); format: functional
NCI-H1975 [27] = assay: Antiproliferative activity against human NCI-H1975 cells assessed as inhibition of cell growth incubated for 3 days by CCK-8 assay; format: functional, cell-based; details: time 3.0 day
A549 [28] = assay: Induction of apoptosis in human A549 cells assessed as late apoptotic cells at 2 uM incubated for 24 hrs by Annexin V-FITC/PI staining based flow cytometry analysis (reference value: 2.56 %); format: functional
[29] = Toxicity in BALB/c mouse xenografted with human A549 cells assessed as lung damage at 40 mg/kg, po administered once a day and measured after 20 days by H and E staining based analysis; format: organism-based; details: in vivo, 480 h, time 20 day
A549 [30] = assay: Downregulation of c-Met mRNA expression in human A549 cells at 0.5 to 1 uM incubated for 24 hrs by qRT-PCR analysis; format: functional, cell-based; details: dose 0.5-1 µM
NCI-H1975 [31] = assay: Antiproliferative activity against human NCI-H1975 cells incubated for 3 days by CCK-8 assay; format: functional, cell-based; details: NCI-H1975, 72 h
A549 [32] = assay: Induction of apoptosis in human A549 cells assessed as necrotic cells at 1 uM incubated for 24 hrs by Annexin V-FITC/PI staining based flow cytometry analysis (reference value: 4.37 %); format: functional
A549 [33] = assay: Induction of apoptosis in human A549 cells assessed as late apoptotic cells at 1 uM incubated for 24 hrs by Annexin V-FITC/PI staining based flow cytometry analysis (reference value: 2.56 %); format: functional
NCI-H1975 [34] = assay: Induction of apoptosis in human NCI-H1975 cells assessed as early apoptotic cells at 0.5 uM incubated for 24 hrs by Annexin V-FITC/PI staining based flow cytometry analysis (reference value: 0.35 %); format: functional

COc1cccc(-c2ccc(-c3nc4c5cccnc5c5ncccc5c4[nH]3)o2)c1
Activity (NCI-H1975 [1]): 4.81% | Activity [2]: Non-toxic | Activity (A549 [3]): Active | Activity (NCI-H1975 [4]): 11.5% | Activity (A549 [5]): 10.4% | inhibition in vivo at 40 mg/kg (A549 [6]): 62.4% | Activity (NCI-H1975 [7]): 10.1% | Activity [8]: Non-toxic | Activity (NCI-H1975 [9]): 2.21% | Activity (NCI-H1975 [10]): 8.12% | inhibition in vivo at 20 mg/kg (A549 [11]): 55.6% | IC50 (A549 [12]): 430 nM | Activity (NCI-H1975 [13]): Dose-dependent-effect | Activity [14]: Non-toxic | Activity (A549 [15]): Dose-dependent-effect | Activity (A549 [16]): 5.09% | inhibition (A549 [17]): Active | viability at 2 µM (NCI-H1975 [18]): 79.7% | Activity [19]: Non-toxic | Kd (Quadruplex DNA): 73.5 nM | Activity (A549 [20]): Active | Activity (A549 [21]): 75.4% | inhibition (NCI-H1975 [22]): Dose-dependent-effect | inhibition (A549 [23]): Dose-dependent-effect | Activity (A549 [24]): Active | Activity (A549 [25]): 6.47% | Activity (NCI-H1975 [26]): 13% | Activity (NCI-H1975 [27]): Active | Activity (A549 [28]): 23.5% | Activity [29]: Non-toxic | Activity (A549 [30]): Active | IC50 (NCI-H1975 [31]): 1680 nM | Activity (A549 [32]): 8.81% | Activity (A549 [33]): 10.8% | Activity (NCI-H1975 [34]): 2.01%
